This note sets out measurements from patent publication US6288091A, “Antiherpes virus compounds and methods for their preparation and use” (Boehringer Ingelheim Ltd., priority 1999, dated 2001).

One data set has as its system HSV-2 HG-52. Nature of the data set: Mouse genital model, vaginal HSV-2 infection, oral administration. In kind it is in vivo, Swiss Webster mouse. The settings on record: Human alphaherpesvirus 2, 3 h, Group 1 Table 1 entries, commencing three hours post infection, read-out: ED50, reduction of viral pathology. The protocol: Antiviral activity for Group 1 compounds was also observed in the mouse genital model of R. W. Sidwell et al., supra. Vaginal HSV-2 infection in the Swiss Webster mouse was initiated by vaginal irritation and instillation of HSV-2 (HSV-2 HG-52, 1×10^7 PFU). Viral pathology was measured as described above.

Data set [1] has as its system HSV-1 acyclovir-resistant mutant strain PAA^r 5. Put plainly: Acyclovir-resistant HSV-1 cutaneous infection in immunodeficient nu/nu mice, strain PAAr 5. In kind it is in vivo, female nu/nu mice. The protocol:
(§1) Animals were cutaneously inoculated with 10^7 PFU pf HSV-1 acyclovir resistant mutant viruses. The resulting cutaneous lesions were scored according to a subjective scoring system. The compound of Group 1 (Entry No. 29 in table 1) was administered orally (gavage) in an acidified vehicle (0.033 N aqueous HCl, tid for 10 days). Animals were similarly treated with acyclovir in 0.033 N aqueous HCl or only with the vehicle (0.033 N aqueous HCl). […] The dose-dependent effect of treatment with Entry No. 29 at 25 mg/kg/day (-.diamond-solid.-), 50 mg/kg/day (-.tangle-solidup.-), 75 mg/kg/day (-.quadrature.-), 100 mg/kg/day (-.circle-solid.-) or 125 mg/kg/day (-.box-solid.-), compared to treatment with vehicle alone (-.smallcircle.-), is shown in FIG. 2. The ED50 of Entry No. 29 was about 60 mg/kg/day. Similar experiments were done using the HSV-1 acyclovir-resistant mutant strain dlsptk (FIGS. 3 and 4). […] The dose-dependent effect of treatment with Entry No. 29 at 25 mg/kg/day (-.diamond-solid.-), 50 mg/kg/day (-.tangle-solidup.-), 75 mg/kg/day (-.quadrature.-), 100 mg/kg/day (-.circle-solid.-) or 125 mg/kg/day (-.box-solid.-), compared to treatment with vehicle alone (-.smallcircle.-), is shown in FIG. 4. […]

Another data set concerns the target T1, HSV-1 helicase-primase (Human herpesvirus 1, UniProt P10189+P10236).
T1 construct: made in house; host or cells: Sf21 insect cells triply infected with recombinant baculoviruses (UL5, UL8, UL52)
Nature of the data set: HSV-1 DNA-dependent ATPase assay (inhibition of HSV-1 helicase-primase). In kind it is biochemical. The gist of the method: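 ATP hydrolysis was measured as inorganic phosphate (malachite green/molybdate, 650 nm) after 20 min at 34°. Reaction: 3 μg/mL purified Sf21-expressed UL5/UL8/UL52 helicase-primase, 25 μM single-stranded M13 DNA hybridized to 68-mer, 4 mM ATP, pH 7.5 HEPES buffer, 3.3% DMSO. Net absorbance change with and without inhibitor gave DNA-dependent ATPase activity.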

Another data set relates to HSV-1 strain F or KOS. Nature of the data set: Inhibition of herpes simplex virus (HSV-1) replication in cell culture (BHK-21 cells, glycoprotein C ELISA). It is filed as cell-based. The gist of the method:
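Replication readout: ELISA for HSV-1 late glycoprotein C (mAb C11, peroxidase-OPD, 450 nm) on glutaraldehyde-fixed cells. Monolayers (~50,000 cells/well) were infected with strain F or KOS (MOI 0.05 PFU/cell), then incubated 24 h at 37° with compound in 2% FBS α-MEM. EC50 derived from % inhibition.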

The nature of data set [2]: Inhibition of HCMV replication, ELISA assay (Hs-68 cells). In kind it is cell-based, Human Cytomegalovirus (HCMV). Particulars: human, read-out: Cytotoxic at this concentration (footnote *, ELISA CMV column). The gist of the method:
(§2)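 EC50 derived from % inhibition of viral replication, read as p28 late-protein ELISA signal (mAb UL99, peroxidase/OPD, 450 nm) on fixed cells. Read-out came 8 days post-infection at 37 °C in DMEM with 5% FBS plus compound, after 2 h adsorption of AD169 at MOI 0.01 PFU/cell onto near-confluent Hs-68 cells.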

Data set [3] deals with HCMV (strain AD169). The data set is described as above. In kind it is cell-based, Human Cytomegalovirus (HCMV). The settings on record: read-out: ELISA CMV EC50. The gist of the method:
as §2

Data set [4] is described as follows: Inhibition of HCMV replication, plaque reduction assay (PRA, Hs-68 cells). It is filed as cell-based, Human Cytomegalovirus (HCMV). Particulars: human. The gist of the method: (§3)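 Hs-68 monolayers (80–90% confluent) were infected with ~50 PFU HCMV AD169 for 2 h at 37°, then given compound in DMEM/5% inactivated FBS, refreshed after 4 days and kept 4 more days. Plaques were counted after formaldehyde fixation and crystal violet staining. EC50 derives from percent plaque reduction versus untreated wells.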

In data set [5] the test system is HCMV (strain AD169). Described as above. Particulars: read-out: PRA CMV EC50. It is filed as cell-based, Human Cytomegalovirus (HCMV). The gist of the method:
as §3

The subject of data set [6] is HSV-1 acyclovir-resistant mutant strain dlsptk. Put plainly: Acyclovir-resistant HSV-1 cutaneous infection in immunodeficient nu/nu mice, strain dlsptk. It is filed as in vivo, female nu/nu mice. The settings on record: oral gavage 100 mg/kg/day, tid for 10 days; strain dlsptk (FIG. 3). The protocol:
as §1

Setting [7] is: Human betaherpesvirus 5, AD169, Hs68, Group 2 Table 2 entries.
Setting [8] is: Human betaherpesvirus 5, AD169, Hs68, Group 1 Table 2 entries.
[9] abbreviates: Human betaherpesvirus 5, AD169, Hs68, Group 1 Table 1 entries.

T1 sequence (P10192 whole entry): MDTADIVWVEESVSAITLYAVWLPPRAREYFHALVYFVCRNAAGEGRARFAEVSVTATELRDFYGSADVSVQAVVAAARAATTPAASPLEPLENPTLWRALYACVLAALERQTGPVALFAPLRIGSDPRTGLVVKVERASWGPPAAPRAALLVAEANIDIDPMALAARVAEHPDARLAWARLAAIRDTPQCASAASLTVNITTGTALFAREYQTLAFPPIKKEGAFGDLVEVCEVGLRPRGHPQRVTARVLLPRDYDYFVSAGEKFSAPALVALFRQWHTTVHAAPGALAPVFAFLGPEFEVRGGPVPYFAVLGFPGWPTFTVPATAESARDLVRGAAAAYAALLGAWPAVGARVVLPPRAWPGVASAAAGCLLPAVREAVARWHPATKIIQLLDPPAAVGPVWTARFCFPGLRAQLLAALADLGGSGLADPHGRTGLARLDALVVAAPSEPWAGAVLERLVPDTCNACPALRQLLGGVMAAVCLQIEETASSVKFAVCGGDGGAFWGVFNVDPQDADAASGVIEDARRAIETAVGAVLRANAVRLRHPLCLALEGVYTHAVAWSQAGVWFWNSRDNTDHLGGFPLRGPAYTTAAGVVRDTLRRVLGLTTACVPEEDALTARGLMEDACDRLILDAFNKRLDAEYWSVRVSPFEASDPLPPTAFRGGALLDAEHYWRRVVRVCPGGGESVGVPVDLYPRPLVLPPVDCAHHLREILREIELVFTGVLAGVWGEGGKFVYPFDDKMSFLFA
T1 sequence (P10236 whole entry): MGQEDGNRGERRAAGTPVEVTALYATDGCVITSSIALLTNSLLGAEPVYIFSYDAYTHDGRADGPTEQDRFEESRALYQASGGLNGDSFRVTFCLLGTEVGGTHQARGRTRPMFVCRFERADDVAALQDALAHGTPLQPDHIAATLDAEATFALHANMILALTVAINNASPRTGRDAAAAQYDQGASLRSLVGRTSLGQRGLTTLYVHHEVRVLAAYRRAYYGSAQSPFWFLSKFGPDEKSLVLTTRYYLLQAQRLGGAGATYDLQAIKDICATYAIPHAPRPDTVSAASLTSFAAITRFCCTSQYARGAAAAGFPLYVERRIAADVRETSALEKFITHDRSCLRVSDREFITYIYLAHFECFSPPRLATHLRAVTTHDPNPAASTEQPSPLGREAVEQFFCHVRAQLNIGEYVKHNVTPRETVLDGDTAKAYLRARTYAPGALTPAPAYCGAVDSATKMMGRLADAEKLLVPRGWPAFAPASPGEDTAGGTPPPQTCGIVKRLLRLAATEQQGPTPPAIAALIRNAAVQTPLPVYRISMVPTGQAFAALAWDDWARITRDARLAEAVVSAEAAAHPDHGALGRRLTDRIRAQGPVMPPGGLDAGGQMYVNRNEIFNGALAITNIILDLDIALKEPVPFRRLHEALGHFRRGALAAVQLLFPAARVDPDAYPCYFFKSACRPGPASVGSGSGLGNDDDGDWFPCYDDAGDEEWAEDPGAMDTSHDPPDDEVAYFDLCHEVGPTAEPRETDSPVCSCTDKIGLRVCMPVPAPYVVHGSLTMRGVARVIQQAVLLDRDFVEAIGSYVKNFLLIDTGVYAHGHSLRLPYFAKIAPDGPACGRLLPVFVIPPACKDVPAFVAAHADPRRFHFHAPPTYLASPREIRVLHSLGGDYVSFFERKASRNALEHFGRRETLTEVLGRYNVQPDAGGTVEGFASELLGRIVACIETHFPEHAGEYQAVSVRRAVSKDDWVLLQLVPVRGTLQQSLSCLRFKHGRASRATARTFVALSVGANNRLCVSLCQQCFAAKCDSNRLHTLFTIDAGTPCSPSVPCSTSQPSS
T1 sequence (P10189 whole entry): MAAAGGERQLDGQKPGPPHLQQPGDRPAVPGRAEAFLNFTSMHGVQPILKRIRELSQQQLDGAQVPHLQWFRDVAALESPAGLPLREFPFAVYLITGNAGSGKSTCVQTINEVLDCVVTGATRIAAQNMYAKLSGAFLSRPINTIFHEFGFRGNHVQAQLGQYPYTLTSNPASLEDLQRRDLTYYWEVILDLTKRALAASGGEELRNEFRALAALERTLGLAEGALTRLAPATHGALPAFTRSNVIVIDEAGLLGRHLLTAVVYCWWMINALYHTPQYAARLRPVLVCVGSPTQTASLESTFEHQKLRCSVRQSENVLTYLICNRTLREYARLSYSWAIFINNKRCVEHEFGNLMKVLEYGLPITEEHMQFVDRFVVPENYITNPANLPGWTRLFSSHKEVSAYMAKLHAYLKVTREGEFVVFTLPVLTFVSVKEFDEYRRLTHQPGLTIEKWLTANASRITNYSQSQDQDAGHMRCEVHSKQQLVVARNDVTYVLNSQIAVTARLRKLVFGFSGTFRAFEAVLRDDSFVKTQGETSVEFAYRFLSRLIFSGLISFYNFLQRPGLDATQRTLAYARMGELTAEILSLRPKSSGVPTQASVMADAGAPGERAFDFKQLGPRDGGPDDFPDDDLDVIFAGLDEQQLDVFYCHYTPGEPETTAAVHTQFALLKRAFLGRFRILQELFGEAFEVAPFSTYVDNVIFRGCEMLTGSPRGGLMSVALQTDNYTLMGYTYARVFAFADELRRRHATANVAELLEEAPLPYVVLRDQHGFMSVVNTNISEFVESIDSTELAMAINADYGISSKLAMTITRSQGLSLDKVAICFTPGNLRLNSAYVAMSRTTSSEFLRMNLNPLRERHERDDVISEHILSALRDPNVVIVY

`Nc1nc(-c2ccc(NC(=O)CN(Cc3ccccc3)C(=O)c3ccncc3)cc2)cs1` [Entry 29]: the ED50 in the data set on HSV-2 HG-52 was 60 mg/kg; in data set [1] (Human alphaherpesvirus 1, po, 240 h, read-out: ED50, cutaneous lesions) it was ~60 mg/kg.
With `Nc1nc(-c2ccc(NC(=O)[C@H](Cc3ccccc3)NC(=O)C3CCCCC3)cc2)cs1` [Example 1], half-maximal inhibition against HSV-1 helicase-primase (Group 1 Table 5 entries) (IC50) required 0.052 µM. Besides, the EC50 in the data set with HSV-1 strain F or KOS (Human alphaherpesvirus 1, BHK-21, Group 1 Table 5 entries) was 0.079 µM; with HCMV (strain AD169) [3] (Human betaherpesvirus 5, AD169, Hs68, Group 1 Table 5 entries), 14 µM. For the same compound, in [2] (Group 1 Table 5 entries), the MCC at 192 h turned out to be 14 µM.
On to `Nc1nc(-c2ccc(NC(=O)C(=O)N(Cc3ccccc3)Cc3ccccc3)cc2)cs1` [Example 2], for which the EC50 was 0.77 µM in the data set on HSV-1 strain F or KOS (Human alphaherpesvirus 1, BHK-21, Group 2 Table 2 entries); 10 µM with HCMV (strain AD169) [3] (setting [7]); 12 µM in the data set with HCMV (strain AD169) [5] (setting [7]). The MCC at 192 h in data set [4] (Group 2 Table 2 entries, read-out: Cytotoxic at this concentration (footnote *, PRA CMV)) amounted to 12 µM.
As for `CC(C)(C)OC(=O)N(CCC(=O)Nc1ccc(-c2csc(N)n2)cc1)C1CCc2ccccc21` (stereo not drawn) [Example 13], the EC50 in the data set with HSV-1 strain F or KOS (Human alphaherpesvirus 1, BHK-21, Group 1 Table 2 entries) came out at 3.4 µM; with HCMV (strain AD169) [3] (setting [8]), 37 µM; in the data set with HCMV (strain AD169) [5] (setting [8]), 9 µM. Moreover, in data set [4] (Group 1 Table 2 entries, read-out: Cytotoxic at this concentration (footnote, PRA CMV)), the MCC at 192 h worked out at 9 µM.
`CCCC(CCC)N(CC(=O)Nc1ccc(-c2csc(N)n2)cc1)C(=O)OC(C)(C)C` [Example 111]: the IC50 at HSV-1 helicase-primase (Group 1 Table 1 entries) stood at 0.37 µM. Also, the EC50 with HSV-1 strain F or KOS (Human alphaherpesvirus 1, BHK-21, Group 1 Table 1 entries) came out at 0.24 µM; in the data set with HCMV (strain AD169) [3] (setting [9]) it was 4 µM. Further, the MCC at 192 h in data set [2] (Group 1 Table 1 entries) was 4 µM.
In turn, `Cc1ccccc1CN(CC(=O)Nc1ccc(-c2csc(N)n2)cc1)C(=O)Cc1ccccn1` [Example 127] returned an IC50 at HSV-1 helicase-primase (Group 1 Table 1 entries) of 0.99 µM. In addition, the EC50 in the data set on HCMV (strain AD169) [3] (setting [9]) was determined as 8.8 µM; in the data set on HCMV (strain AD169) [5] (setting [9]), 25 µM. In [4] (Group 1 Table 1 entries, read-out: Cytotoxic at this concentration (footnote *, PRA CMV)), the MCC at 192 h is 25 µM.
With `Nc1nc2c(ncn2COCCO)c(=O)[nH]1` [acyclovir, reference compound], the “effect on cutaneous lesions” value in data set [1] (oral gavage 100 mg/kg/day, tid for 10 days, strain PAAr 5 (FIG. 1)) is reported as “no effect on cutaneous lesions”; in data set [6], “no effect on cutaneous lesions”.
